Assay results published in the METLIN SMRT retention time set (Domingo-Almenara et al. 2019).

Test: gradient 5% acetonitrile 3 min, to 50% in 2 min, to 85% in 15 min, held 3 min, 100 µL/min
Settings: column: Zorbax Extend-C18 2.1 x 50 mm; eluents: water / acetonitrile, 0.1% formic acid
Outline: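 Pure standards were analyzed in mixtures of ~100 molecules using HPLC coupled to a quadrupole time-of-flight mass spectrometer, in both positive and negative ionization mode. Separation used a Zorbax Extend-C18 column (2.1 × 50 mm, 1.8 μm) at 100 μL/min, with water and acetonitrile each containing 0.1% formic acid. Dead and dwell volumes were 40 μL and 900 μL, and data were collected over 3 months. Retention time was read from computationally picked adduct peaks, each inspected manually.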

Structure (SMILES)	RP-LC retention time [s]
CCOC(=O)c1cccc(NC2=NS(=O)(=O)c3ccccc32)c1	839
Cc1ccc(-c2cc3c4nnc(SCC(=O)Nc5ccccc5F)n4ccn3n2)cc1C	985
CCN(Cc1ccc(F)cc1)Cc1cc(=O)c2cccc(F)c2[nH]1	594
Cc1ccc2nc(-c3cc(Br)ccc3F)c(Nc3ccccc3C)n2c1	793
Brc1ccc(-c2nc(NCCC3=CCCCC3)c3ccccc3n2)cc1	1010
O=C(Cn1ccn2nc(-c3ccccc3)c(CO)c2c1=O)NCc1ccc2c(c1)OCO2	738
CCCN(C)S(=O)(=O)c1c(C)nn(-c2ccc(-c3ccccc3)nn2)c1C	1080
COc1ccc(-n2c(=O)c3sccc3n(Cc3nc(-c4cccc(C)c4)no3)c2=O)cc1	1020
O=C(Nc1cc(F)cc(F)c1)c1c(O)c2cccnc2n(-c2ccc(F)cc2)c1=O	918
O=C(NCc1ccc(C(F)(F)F)cc1)c1c(O)c2cccnc2[nH]c1=O	1010
COCCCNC(=O)C1c2cc(OC)c(OC)cc2C(=O)N(C)C1c1ccc(OC)cc1 (stereo unspecified)	685
Cc1ccccc1S(=O)(=O)N(C)CC1CCOCC1	837
CCCn1cc(C(=O)NCc2cccs2)c2cccnc21	799
CN(CC#N)C(=O)c1cc2c(Cl)ccc3c2n1CCO3	865
CCC(NC(=O)c1cn2cc(C)ccc2n1)c1ccc(OC)cc1 (stereo unspecified)	697
CCc1nn2c(CNS(=O)(=O)c3ccccc3F)c(-c3ccccc3)nc2s1	907
COc1ccc(-c2nc(-c3cn(-c4cccc(Cl)c4)nn3)no2)cc1OC	1040
CCOC(=O)c1nc(NCc2ccc3c(c2)OCO3)c2ccccc2n1	719
CCc1nc(-c2ccc(C(=O)NC)cc2)no1	690
CC(CCc1ccccc1)NC(=O)c1cc2sccc2n1Cc1ccc(F)cc1 (stereo unspecified)	1190
Cc1ccc(-c2ncc(C(=O)Nc3ccccc3Br)c(-c3ccncc3)n2)cc1	994
COc1ccccc1CNC(=O)CSc1ccc(-c2cccnc2)nn1	592
COc1cc(C(=O)NC2C=CS(=O)(=O)C2)cc(OC)c1OC (stereo unspecified)	615
O=S(=O)(c1ccccc1)N1CCC(c2noc(C3CC3)n2)C1 (stereo unspecified)	866
O=C(Cn1cnc2ccccc2c1=O)N[C@@H](C(=O)O)c1ccc(O)cc1	589
CCOCCOC1CCN(S(=O)(=O)Cc2ccccc2)CC1	856
CN(C)S(=O)(=O)c1ccc(-n2cnc(C(=O)N3CCN(Cc4ccccc4)CC3)c2)cc1	626
COc1cccc(-c2cc(C(=O)N3CC(c4nc(-c5cccs5)no4)C3)[nH]n2)c1	798

Results, then the molecule that gave them:

RP-LC retention time [s]	Structure (SMILES)
965	COc1ccc(F)cc1S(=O)(=O)N1CCN(c2c(C)nn(-c3ccccc3)c2C)CC1
782	CCOc1cccc(CNC(=O)C2CCCN(c3ncnc4c3oc3ccccc34)C2)c1 (stereo unspecified)
1030	C=CCNC(=O)c1cn(CCC)nc1S(=O)(=O)N1CCN(c2ccccc2OCC)CC1
618	Cc1cccc(-c2ocnc2C(=O)NC2CCN(C)CC2)c1
696	Cn1nc(C(=O)N2CCCC2)c2c1CCN(C(=O)CCC(=O)NC1CCCCCC1)C2
726	CCN(CC)CCCNC(=O)C1CCCN(c2nc3ccccc3n(Cc3ccccc3)c2=O)C1 (stereo unspecified)
1130	O=C(NC1CCCC1)C1CCN(c2ncccc2-c2nc(-c3ccc(Cl)cc3)no2)CC1
922	Cc1ccccc1CNC(=O)C1CCCN(c2ccc(=O)n(-c3cccc(Cl)c3)n2)C1 (stereo unspecified)
933	O=C(Cn1cnc2c(-c3ccc(Cl)cc3)csc2c1=O)NC1CCCC1
1030	CCOc1ccccc1N1CCN(S(=O)(=O)c2nn(C)cc2C(=O)NC2CCCC2)CC1
813	Cc1nc(-c2ccc(N3CCN(C(=O)c4ccc5c(c4)OCO5)CC3)nc2)sc1C
570	O=C(C1CCN(c2cnc3nccnc3c2)CC1)N1CCN(c2ccccn2)CC1
878	COc1ccc2nc(C(=O)NC3CCCCCC3)cn2n1
586	CCc1ccc(NC(=O)C2CCCN(c3ccc(=O)n(-c4ccc(C)c(Cl)c4)n3)C2)cc1 (stereo unspecified)
881	O=C(Nc1ccc2c(c1)OCCO2)C1CN(S(=O)(=O)C2CC2)CC12CCCCC2 (stereo unspecified)
987	CC1CCN(C(=O)c2cc3c(s2)CCN(C(=O)c2ccc(Cl)cc2)C3)CC1
584	Cc1cc(C)cc(C(=O)N2CCc3nc[nH]c3C2)c1
1040	COc1ccc(C)cc1NC(=O)C1CCCN(S(=O)(=O)c2cc(-c3noc(C)n3)cs2)C1 (stereo unspecified)
721	COc1ccccc1CNS(=O)(=O)c1ccc2c(c1)CCCC(=O)N2

RP-LC retention time [s]	Structure (SMILES)
856	Cc1sc(-c2nnc(C3CC3)o2)cc1NC(=O)C1CCC1
620	Cc1oc(-c2[nH]ncc2C(=O)N2CCCC2)cc1S(=O)(=O)NC1CC1
747	CCOc1ccc(CNC(=O)c2ccc3c(c2)NC(=O)C2CCCCN32)cc1OC (stereo unspecified)
782	CCOc1ccnc2c1c(=O)n(CC(=O)Nc1cccc(C(F)(F)F)c1)c(=O)n2C
1190	Cc1cc(C)nc(N2CCN(c3cc(C)nc4c(-c5ccc(F)cc5)cnn34)CC2)n1
1000	CCc1nc(-c2cc(S(=O)(=O)N3CCC(C(=O)Nc4ccc(OC)cc4)CC3)c(C)s2)no1
723	Cc1nc2cc(N3CCCC(C(=O)NC4CCCCC4)C3)cnc2nc1C (stereo unspecified)
945	COC(=O)c1ccc2c(=O)n(-c3cc(F)cc(F)c3)c(N3CCOCC3)nc2c1
936	Cc1cccc(CNC(=O)C2=C3CCCN3c3ccc(F)cc3S2(=O)=O)c1
641	Cn1c(=O)cc(N2CCC[C@@H](N)C2)n(Cc2ccccc2C#N)c1=O
1140	CC1CCCN(c2nn(CC(=O)Nc3ccccc3F)c(=O)c3ccccc23)C1 (stereo unspecified)
808	Cc1ccc(NC(=O)Cn2nc3nc(N4CCCC(C)C4)ccn3c2=O)c(C)c1 (stereo unspecified)
715	O=C(Cn1nc2c(cc1=O)CCCC2)Nc1cccc(N2CCCCS2(=O)=O)c1
812	CN(C)S(=O)(=O)c1ccc2c(c1)N(CC(=O)N1CCCCC1)C(=O)C1CCCCN21 (stereo unspecified)
819	O=C(c1ccc(F)cc1)N1CCCC(c2nnc(-c3ccccc3)o2)C1 (stereo unspecified)
786	Cn1ncc(N2CCCC(C(=O)Nc3ccc4c(c3)CCC4)C2)cc1=O (stereo unspecified)
1010	Cc1ccc(Cl)cc1N1CCN(C(=O)Cn2nc(C(=O)N3CCCC3)c3ccccc32)CC1
630	NC(=O)C1CCN(C(=O)Cc2cc(-c3ccc(F)cc3)on2)CC1
727	COc1ccccc1CNC(=O)C1CCCN(c2cnc3nc(C)c(C)nc3c2)C1 (stereo unspecified)
